Source: patent US10080779B2, “Method for increasing the expression of anti-microbial peptides by keratinocytes comprising administering a composition comprising IL-17, TNF-alpha and OSM” (Universite D'Angers, priority 2004, dated 2018)

Legend:
RHE [1] = assay: RHE histology and immunohistochemistry (Example 14); format: cell-based, human; settings: 72 h; for CK10, LOR and FLG expression (immunohistology) / IVL expression (immunohistology) / S100A7 expression (immunohistology): RHE; for CK10, LOR and FLG expression (immunohistology) / IVL expression (immunohistology) / S100A7 expression (immunohistology) / RHE histology: single cytokines
Description: (§1) Normal human epidermal keratinocytes (NHEK) were obtained as previously described, from surgical samples of healthy breast skin (Boniface et al, 2005). NHEK were cultured to 80% of confluence allowing the expression of a large panel of keratinocyte differentiation markers, and then starved for 24 h in Keratinocyte SFM containing 0.03 mM Ca^2+ (Invitrogen Life Technologies, Cergy Pontoise, France) before stimulation. Confluent differentiated cells were stimulated with or without recombinant IL-17A, OSM, TNFα, IL-22 and IL-1α alone at maximum effective concentrations (reported previously around 10 ng/ml (Boniface et al, 2005 and Boniface et al, 2007)) or in combination (R&D systems Europe, Lille, France) during 2 h to 72 h for mRNA quantification. RHE were generated on polycarbonate culture inserts, from surgical samples of paediatric foreskins as previously described (Guenou et al., 2009). RHE were stimulated with or without recombinant IL-17A, OSM, TNFα, IL-22 and IL-1α alone or in combination, with or without a Janus protein Tyrosine Kinases (JAKs) inhibitor 10 μM (Calbiochem, 420099), during 24 h for mRNA quantification or during 72 h for immunohistological analysis.
RHE were washed and fixed with formaldehyde solution. Fixed tissues were dehydrated with increasing ethanol concentrations, embedded in paraffin and sections were carried out using a microtome (4 μm thickness). The sections were deparaffinised, washed and incubated with hydrogen peroxide. The sections were incubated with anti-CK10 (SantaCruz, SC-23877), anti-LOR (Eurogentec, PRB-145P), anti-FLG (SantaCruz, SC-66192), anti-IVL (Biomedical Technologies, BT-601), anti-S100A7 (Clinisciences, IMG-409A) and then detected using a biotin-conjugated secondary antibody (Vector, RTU vectastain universal quick kit, PK-7800). After peroxidase-conjugated streptavidine (Vector, RTU vectastain universal quick kit, PK-7800) and peroxidase substrate addition (Dako, Substrat hyper-sensible AEC+), nuclei were counter-stained using a solution of hematoxylin. Sections were observed using a NIKON E400 microscope. The images were captured using a NIKON DS-Ril and processed with NIS-Elements 3.10 software.

NHEK [2] = assay: Cytokine measurement by ELISA in NHEK culture supernatants; format: cell-based, human; settings: 96 h; for Redundancy with the family member it replaces in M5 (BD2 and CXCL8 production): IL-1β for IL-1α, TNFβ for TNFα, IL-17F for IL-17A, IL-24 for IL-22, IL-6 for OSM
Description: (§2) NHEK were obtained as previously described, from surgical samples of healthy breast skin (Boniface et al, 2005). NHEK were cultured to 80% of confluence and then starved for 24 h in Keratinocyte SFM without addition of growth factors before stimulation. Cells were stimulated with or without 10 ng/ml of recombinant IL-17A, OSM, TNFα, IL-22 and IL-1α alone or in combination (R&D systems Europe, Lille, France) during 24 h for mRNA quantification or 48 h to 96 h for protein quantification.
Levels of BD2, BD3 and CXCL8 were determined using Human ELISA development kit (Peprotech), and CXCL1 and CXCL5 with DuoSet reagents (R&D Systems Europe).

NHEK [3] = assay: cDNA macroarrays analysis of 36 cytokines on 154 genes in NHEK; format: cell-based, human; settings: 10 ng/ml, 24 h
Description: The comparison of the effects of 36 different cytokines on the expression of 154 genes of potential interest for skin physiology was performed using home-made cDNA macroarrays analysis. After cytokine stimulation, total RNA was extracted using TRIzoI® Reagent (Invitrogen life Technologies) and conventional 33P-cDNA target synthesis and hybridization were performed (Boniface et al, 2007). Genes were considered regulated if expression levels differed more than 3-fold relative to untreated control and 3-fold relative to mean background noise.

NHEK [4] = assay: Keratinocyte differentiation marker (KDM) mRNA in NHEK (RT-PCR); format: cell-based, human; settings: 24 h; for mRNA expression of CK1, DSG1, DSC1, FLG, CLSP, LOR and FABPS: single cytokines 10 ng/ml
Description: as §1
(§3) NHEK, RHE and murine skin total RNA were isolated using NucleoSpin® RNA II kit (Macherey-Nagel, Hoerdt, France) and reverse-transcribed with SuperScript® II Reverse Transcriptase (Invitrogen Life Technologies) according to the manufacturer's instructions. Quantitative real time PCR was carried out using the LightCycler-FastStart DNA Master SYBR® Green I kit on LightCycler 480 (Roche Diagnostics, Meylan, France). The reaction components were 1×DNA Master Mix, and 0.5 μM of HPLC purified sense and anti-sense oligonucleotides purchased from Eurogentec (Eurogentec France, Angers, France), designed using Primer3 software. The stability of the housekeeping gene expression has been assessed by using GeNorm algorithm. […] Thus samples were normalized to G3PDH housekeeping gene and reported according to the ΔΔCT method as RNA fold increase: 2^ΔΔCT=2^ΔCT sample−ΔCT reference.

NHEK [5] = assay: RT-QPCR of antimicrobial peptide and chemokine genes in NHEK; format: cell-based, human; settings: 10 ng/ml, 24 h
Description: as §2
NHEK and skin total RNA were isolated and reverse-transcribed as previously described (Boniface et al, 2005). Quantitative real time PCR was carried using the LightCycler-FastStart DNA Master SYBR® Green I kit on LightCycler 480 (Roche Diagnostics, Meylan, France). The reaction components were 1×DNA Master Mix, and 0.5 μM of HPLC purified sense and anti-sense oligonucleotides purchased from Eurogentec (Eurogentec France, Angers, France), designed using Primer3 software. Samples were normalized to three independent control housekeeping genes (G3PDH, RPL13A or ACTB for human samples and G3PDH, HMBS or B2m for mouse samples) and reported according to the ΔΔCT method as RNA fold increase: 2^ΔΔCT=2^ΔCT sample−ΔCT eference. For comparison of normal skin and psoriatic skin the REST 2008 software was used (Pfaffl et al., 2002).

RHE [6] = assay: KDM mRNA in reconstituted human epidermis (RT-PCR); format: cell-based; settings: 24 h
Description: as §1, §3

[7] = test system: normal human keratinocytes (NHEK); assay: Cytokine cocktails on S100A7, hBD2/4, KRT10 mRNA in NHEK (RT-Q-PCR); format: cell-based; settings: NHEK 24 hrs, 1 ng/ml each
Description: Quantitative real time PCR was carried out using the LightCycler-FastStart DNA Master^PLUS SYBR Green I kit (Roche, Mannheim, Germany). The reaction components were 1× FastStart DNA Master^PLUS SYBR Green I and 0.5 μM of forward and reverse primers for S100A7 (forward 5′-[…]-3′ (SEQ ID No: 9) and reverse 5′-[…]-3′ (SEQ ID No: 10)), S100A8 (Pattyn, Speleman et al. 2003), S100A9 (forward 5′-[…]-3′ (SEQ ID No: 11) and reverse 5′-[…]-3′ (SEQ ID No: 12)), hBD2/4 (forward 5′-[…]-3′ (SEQ ID No: 13) and reverse 5′-[…]-3′ (SEQ ID No: 14)), KRT10 (forward 5′-[…]-3′ (SEQ ID No: 15) and reverse 5′-[…]-3′ (SEQ ID No: 16)), and hydroxymethyl-bilane synthase (HMBS) as a housekeeping gene (Vandesompele, De Preter et al. 2002). After cDNA fluorescent quantification using propidium iodide, 250 ng, 25 ng and 2.5 ng of cDNA were added as PCR template in the LightCycler glass capillaries. The cycling conditions comprised a 10 min polymerase activation at 95° C. and 50 cycles at 95° C. for 10 s, 64° C. for 5 s and 72° C. for 18 s with a single fluorescence measurement. […] A mathematical model was used to determine the relative quantification of target genes compared to HMBS reference gene (Pfaffl 2001).
To that aim, confluent normal human keratinocytes (NHEK) were treated for 24 hrs with the indicated mix of cytokines (each cytokine at 1 ng/ml final concentration). Total RNA was extracted, reverse-transcribed and the expression of the selected genes was analyzed by real-time PCR as described.

## CC(C)(C)c1nc2c3ccc(F)cc3c3c(=O)[nH]ccc3c2[nH]1 [JAKs inhibitor, reference compound]
RHE [1]; JAKs inhibitor 10 μM with M5 (3 ng/ml)
  Effect on M5-induced RHE disruption and hyperplasia: protects the integrity of the RHE and blocked the epidermal hyperplasia

## IL-1β: cytokine of the same family as IL-1α
NHEK [2]
  Redundancy with the family member it replaces in M5 (BD2 and CXCL8 production): total redundancy
NHEK [3]
  Number of genes (of 154) whose expression is modified with at least a three fold increase or decrease: at least five genes

## IL-6: cytokine of the same family as OSM
NHEK [2]
  Redundancy with the family member it replaces in M5 (BD2 and CXCL8 production): weak redundancy
NHEK [3]
  Number of genes (of 154) whose expression is modified with at least a three fold increase or decrease: at least five genes

## IL-17A: recombinant cytokine; IL-17 designates IL-17A, IL-17B or a mixture, preferably IL-17A
NHEK [2]; 10 ng/ml
  BD2 production, single cytokines: most potent inducers
NHEK [2]
  Contribution to M5 activity on BD2 and CXCL8 production (successive removal): more critical to the activity of the M5 combination
NHEK [4]
  Number of KDM whose control mRNA expression is partially restored on removal of the cytokine from M5: 3 KDM
  mRNA expression of CK1, DSG1, DSC1, FLG, CLSP, LOR and FABPS: minor activities
NHEK [5]
  Number of the 21 chemokine and antimicrobial peptide genes upregulated: 16
RHE [1]
  CK10, LOR and FLG expression (immunohistology): did not exhibit any activity
  IVL expression (immunohistology): discreetly induced
  S100A7 expression (immunohistology): very slightly
  RHE histology: does not modify RHE histology
RHE [6]
  IVL mRNA expression: discretely inhibited
[7]
  Decrease of the activity of the 5 cytokines reference mix on omission of the cytokine, S100A7: 4.5 fold
  Decrease of the activity of the 5 cytokines reference mix on omission of the cytokine, hBD2/4: 36 fold
NHEK [3]
  Number of genes (of 154) whose expression is modified with at least a three fold increase or decrease: at least five genes

## TNFα
NHEK [2]
  Contribution to M5 activity on BD2 and CXCL8 production (successive removal): more critical to the activity of the M5 combination
NHEK [4]
  Rank as contributor to keratinocyte differentiation inhibition (removal from M5): most potent cytokines for keratinocyte differentiation inhibition
  mRNA expression of CK1, DSG1, DSC1, FLG, CLSP, LOR and FABPS: downregulate mRNA expression
NHEK [5]
  Number of the 21 chemokine and antimicrobial peptide genes upregulated: 20
RHE [1]
  CK10, LOR and FLG expression (immunohistology): did not exhibit any activity
  IVL expression (immunohistology): discreetly induced
  S100A7 expression (immunohistology): very slightly
  RHE histology: does not modify RHE histology
[7]
  Decrease of the activity of the 5 cytokines reference mix on omission of the cytokine, S100A7: 3 fold
  Decrease of the activity of the 5 cytokines reference mix on omission of the cytokine, hBD2/4: 5.6 fold
NHEK [3]
  Number of genes (of 154) whose expression is modified with at least a three fold increase or decrease: at least five genes

B1: INFγ: gamma Interferon (protein, UniProt P01579 24-161, looked up)
Interferon gamma: QDPYVKEAENLKKYFNAGHSDVADNGTLFLGILKNWKEESDRKIMQSQIVSFYFKLFKNFKDDQSIQKSVETIKEDMNVKFFNSNKKKRDDFEKLTNYSVTDLNVQRKAIHELIQVMAELSPAAKTGKRKRSQMLFRG
[7]
  Effect of depleting the cytokine from the mix on activity of the complete cocktail: did not significantly decrease the activity

B2: IL-24: cytokine of the same family as IL-22 (protein, UniProt Q13007 52-206, looked up)
Interleukin-24: QEFHFGPCQVKGVVPQKLWEAFWAVKDTMQAQDNITSARLLQQEVLQNVSDAESCYLVHTLLEFYLKTVFKNYHNRTVEVRTLKSFSTLANNFVLIVSQLQPSQENEMFSIRDSAHRRFLLFRRAFKQLDVEAALTKALGEVDILLTWMQKFYKL
NHEK [2]
  Redundancy with the family member it replaces in M5 (BD2 and CXCL8 production): limited redundancy
NHEK [3]
  Number of genes (of 154) whose expression is modified with at least a three fold increase or decrease: at least five genes

B3: TNFβ: cytokine of the same family as TNFα (protein, UniProt P01374 35-205, looked up)
Lymphotoxin-alpha: LPGVGLTPSAAQTARQHPKMHLAHSTLKPAAHLIGDPSKQNSLLWRANTDRAFLQDGFSLSNNSLLVPTSGIYFVYSQVVFSGKAYSPKATSSPLYLAHEVQLFSSQYPFHVPLLSSQKMVYPGLQEPWLHSMYHGAAFQLTQGDQLSTHTDGIPHLVLSPSTVFFGAFAL
NHEK [2]
  Redundancy with the family member it replaces in M5 (BD2 and CXCL8 production): strong redundancy

B4: IL-17F: cytokine of the same family as IL-17A (protein, UniProt Q96PD4 31-163, looked up)
Interleukin-17F: RKIPKVGHTFFQKPESCPPVPGGSMKLDIGIINENQRVSMSRNIESRSTSPWNYTVTWDPNRYPSEVVQAQCRNLGCINAQGKEDISMNSVPIQQETLVVRRKHQGCSVSFQLEKVLVTVGCTCVTPVIHHVQ
NHEK [2]
  Redundancy with the family member it replaces in M5 (BD2 and CXCL8 production): limited redundancy
